Activity calls are given as the source filed them. The calls are words filed in the database; no cut-off is given here.
Legend:
[1] = Lipophilicity, logD of the compound; assay type: physicochemical; conditions: octanol/water
[2] = Stability in rat liver microsomes at 1 uM in presence of NADPH regeneration system incubated for 15 mins by LC-MS analysis; assay type: ADME, Microsome
[3] = Permeability of the compound by PAMPA method; assay type: ADME
[4] = target: Activin receptor type-2A (Homo sapiens) (UniProt P27037); experiment: Inhibition of human ACVR2A expressed in baculovirus expression system
Chain of Activin receptor type-2A (Homo sapiens) (P27037 whole entry): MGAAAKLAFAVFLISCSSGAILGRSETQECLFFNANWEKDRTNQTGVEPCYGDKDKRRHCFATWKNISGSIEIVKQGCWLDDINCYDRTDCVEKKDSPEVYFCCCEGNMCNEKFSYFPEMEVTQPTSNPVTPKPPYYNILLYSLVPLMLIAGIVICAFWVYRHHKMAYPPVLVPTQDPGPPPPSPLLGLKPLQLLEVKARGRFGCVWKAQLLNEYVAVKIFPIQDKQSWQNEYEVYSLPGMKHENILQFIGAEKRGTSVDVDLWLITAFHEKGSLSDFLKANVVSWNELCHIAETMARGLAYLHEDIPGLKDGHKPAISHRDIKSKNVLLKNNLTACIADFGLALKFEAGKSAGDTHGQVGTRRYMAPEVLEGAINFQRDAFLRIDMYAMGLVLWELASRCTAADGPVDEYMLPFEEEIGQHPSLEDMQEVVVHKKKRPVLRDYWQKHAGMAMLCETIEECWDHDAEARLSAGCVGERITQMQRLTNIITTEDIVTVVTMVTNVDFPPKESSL

logD [1] | SMILES | also measured
1.5 | CC(=O)Nc1cccc(Nc2cncc(-c3ccc(NS(C)(=O)=O)cc3)c2)c1 | 
1.7 | CC(=O)Nc1cccc(-c2cncc(-c3ccc(NS(C)(=O)=O)cc3)c2)c1 | 
-1 | CS(=O)(=O)Nc1ccc(-c2cncc(/C=C3\OC(=O)NC3=O)c2)cc1 | 
2.5 | CS(=O)(=O)Nc1ccc(-c2cncc(-c3ccc4cc[nH]c4c3)c2)cc1 | 
-0.05 | CS(=O)(=O)Nc1ccc(-c2cncc(/C=C3\SC(=O)NC3=O)c2)cc1 | Stability [2]: Stable
0.66 | CS(=O)(=O)Nc1ccc(-c2cncc(/C=C3\SC(=N)NC3=O)c2)cc1 | Stability [2]: Stable; permeability [3]: Impermeable
1.5 | CS(=O)(=O)Nc1ccc(-c2cncc(-c3cccc4c3CC(=O)N4)c2)cc1 | 
1.6 | CNC(=O)Nc1ccc(-c2cncc(-c3ccc(NS(C)(=O)=O)cc3)c2)cc1 | 
-0.14 | CS(=O)(=O)Nc1ccc(-c2cncc(/C=C3\CC(=O)NC3=O)c2)cc1 | 
2.5 | CS(=O)(=O)Nc1ccc(-c2cncc(-c3cccc4[nH]ccc34)c2)cc1 | Stability [2]: Stable; inhibition [4]: Active; permeability [3]: Permeable
2.5 | CS(=O)(=O)Nc1ccc(-c2cncc(-c3ccc4[nH]ccc4c3)c2)cc1 | 
1.5 | CC(=O)Nc1cccc(Oc2cncc(-c3ccc(NS(C)(=O)=O)cc3)c2)c1 | 

The remaining lines, values behind:

SMILES | logD [1] | also measured
COc1ccc(-c2cncc(/C=C3\SC(=N)NC3=O)c2)c2ccccc12 | 3.1 | 
CC(=O)Nc1cccc(-c2cncc(/C=C3\SC(=N)NC3=O)c2)c1 | 1.5 | 
CNC(=O)Nc1ccc(-c2cncc(/C=C3\SC(=N)NC3=O)c2)cc1 | 1.4 | 
CS(=O)(=O)Nc1ccc(-c2cc(/C=C3\SC(=N)NC3=O)cnc2N)cc1 | 0.41 | Stability [2]: Stable; permeability [3]: Impermeable
CC(=O)Nc1ccc(-c2cncc(/C=C3\SC(=N)NC3=O)c2)cc1 | 1.5 | 
CNS(=O)(=O)c1ccc(-c2cncc(/C=C3\SC(=N)NC3=O)c2)cc1 | 1.1 | 
N=C1NC(=O)/C(=C/c2cncc(-c3ccc(OC(F)(F)F)cc3)c2)S1 | 3.7 | 
CS(=O)(=O)Nc1ccc(-c2cnc(N)c(/C=C3\SC(=N)NC3=O)c2)cc1 | 0.41 | 
CN(C)c1ccc(-c2cncc(/C=C3\SC(=N)NC3=O)c2)cc1 | 2.4 | 
CS(=O)(=O)c1ccc(-c2cncc(/C=C3\SC(=N)NC3=O)c2)cc1 | 1.1 | 

Reference: ChEMBL document CHEMBL4402604, “Discovery and Structure-Activity Relationship Study of (Z)-5-Methylenethiazolidin-4-one Derivatives as Potent and Selective Pan-phosphatidylinositol 5-Phosphate 4-Kinase Inhibitors” (J Med Chem, 2020)
